Drawing on paper PMC11781366 (Immunity, 2023), this text covers Kd for one compound.

A word on the Kd: it is a measure of binding affinity in units of concentration.

In assay [1] the target is T1, D. melanogaster STING (dSTING) (Drosophila melanogaster, UniProt A0A0B4LFY9).
T1 sequence (A0A0B4LFY9 1-343): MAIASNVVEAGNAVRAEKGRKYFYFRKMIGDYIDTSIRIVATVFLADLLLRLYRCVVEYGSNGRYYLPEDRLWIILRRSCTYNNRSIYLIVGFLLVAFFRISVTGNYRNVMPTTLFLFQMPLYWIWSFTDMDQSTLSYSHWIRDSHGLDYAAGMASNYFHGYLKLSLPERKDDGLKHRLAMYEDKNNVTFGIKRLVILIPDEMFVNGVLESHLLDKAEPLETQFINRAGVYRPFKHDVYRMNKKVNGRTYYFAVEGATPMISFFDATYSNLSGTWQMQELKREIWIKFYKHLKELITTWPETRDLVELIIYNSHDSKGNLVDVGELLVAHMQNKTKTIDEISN
Put plainly: microscale thermophoresis in lysates of transfected S2 cells. It counts as biochemical.

Another assay concerns D. serrata STING. Described as above. The assay is classed as biochemical, Drosophila serrata.

In the case of `Nc1nc2c(ncn2[C@@H]2O[C@@H]3COP(=O)(O)O[C@@H]4[C@H](O)[C@@H](COP(=O)(O)O[C@H]3[C@H]2O)O[C@H]4n2cnc3c(=O)[nH]c(N)nc32)c(=O)[nH]1` [2′3′-c-di-GMP], the results for the Kd (in assay [1]; with D. serrata STING) were 28.2 µM and 36.7 µM, respectively.
